# Tested on: 28 target genes (defense genes) in apple tree leaves
# Experiment: Test 1: relative expression of the 28 defense genes (qPCR, ΔΔCt) in apple tree seedling leaves subjected to NDS treatments and abiotic stresses
# Type: in vivo, apple tree seedlings (Golden Delicious)
# Conditions: for Relative expression of ANS / Relative expression of PAL / Relative expression of PR-1 / Relative expression of PR-2 / Relative expression of PR-4 / Relative expression of PR-5 / Relative expression of PR-8 / Relative expression of PR-14 / Relative expression of PR-15: vs water control
# [1] = +H2O2, J2, relative to water control
# [2] = +H2O2, J3, relative to water control
# [3] = +H2O2 (sprayed 24 hours after treatment), J2
# [4] = +H2O2 (sprayed 24 hours after treatment), J3
# [5] = −H2O2, J2, relative to water control
# [6] = −H2O2, J3, relative to water control
smiles,measurement,setting,value
"CC/C=C\CC1C(=O)CCC1CC(=O)OC (stereo not shown) [MeJA, methyl jasmonate]",Relative expression ACCO (log base 2),[1],3.48
same,Relative expression APOX (log base 2),[1],1.87
same,Relative expression CAD (log base 2),[1],0.70
same,Relative expression CHS (log base 2),[1],3.73
same,Relative expression CSL (log base 2),[1],2.26
same,Relative expression CalS (log base 2),[1],0.48
same,Relative expression DFR (log base 2),[1],3.43
same,Relative expression EDS1 (log base 2),[1],−0.17
same,Relative expression EIN3 (log base 2),[1],2.54
same,Relative expression FPPS (log base 2),[1],−0.07
same,Relative expression Far (log base 2),[1],0.74
same,Relative expression GST (log base 2),[1],0.47
same,Relative expression HMGR (log base 2),[1],−0.38
same,Relative expression JAR (log base 2),[1],0.73
same,Relative expression LOX2 (log base 2),[1],1.51
same,Relative expression POX (log base 2),[1],2.84
same,Relative expression PPO (log base 2),[1],0.80
same,Relative expression Pect (log base 2),[1],−2.02
same,Relative expression WRKY (log base 2),[1],−0.06
same,Relative expression ACCO (log base 2),[2],2.28
same,Relative expression APOX (log base 2),[2],2.11
same,Relative expression CAD (log base 2),[2],0.35
same,Relative expression CHS (log base 2),[2],1.47
same,Relative expression CSL (log base 2),[2],1.46
same,Relative expression CalS (log base 2),[2],1.48
same,Relative expression DFR (log base 2),[2],1.36
same,Relative expression EDS1 (log base 2),[2],0.98
same,Relative expression EIN3 (log base 2),[2],1.80
same,Relative expression FPPS (log base 2),[2],0.43
same,Relative expression Far (log base 2),[2],0.39
same,Relative expression GST (log base 2),[2],0.87
same,Relative expression HMGR (log base 2),[2],0.60
same,Relative expression JAR (log base 2),[2],1.61
same,Relative expression LOX2 (log base 2),[2],1.99
same,Relative expression POX (log base 2),[2],4.29
same,Relative expression PPO (log base 2),[2],1.23
same,Relative expression Pect (log base 2),[2],2.16
same,Relative expression WRKY (log base 2),[2],3.46
same,Relative expression of ANS,[3],3.29 log2
same,Relative expression of PAL,[3],3.36 log2
same,Relative expression of PR-1,[3],0.40 log2
same,Relative expression of PR-2,[3],3.89 log2
same,Relative expression of PR-4,[3],1.25 log2
same,Relative expression of PR-5,[3],−2.09 log2
same,Relative expression of PR-8,[3],1.41 log2
same,Relative expression of PR-14,[3],−0.64 log2
same,Relative expression of PR-15,[3],3.20 log2
same,Relative expression of ANS,[4],1.44 log2
same,Relative expression of PAL,[4],2.01 log2
same,Relative expression of PR-1,[4],2.84 log2
same,Relative expression of PR-2,[4],0.68 log2
same,Relative expression of PR-4,[4],2.84 log2
same,Relative expression of PR-5,[4],−1.22 log2
same,Relative expression of PR-8,[4],1.51 log2
same,Relative expression of PR-14,[4],3.68 log2
same,Relative expression of PR-15,[4],2.77 log2
same,Relative expression of ANS,"−H2O2, J2",2.31 log2
same,Relative expression of PAL,"−H2O2, J2",3.17 log2
same,Relative expression of PR-1,"−H2O2, J2",1.56 log2
same,Relative expression of PR-2,"−H2O2, J2",4.03 log2
same,Relative expression of PR-4,"−H2O2, J2",2.68 log2
same,Relative expression of PR-5,"−H2O2, J2",−0.59 log2
same,Relative expression of PR-8,"−H2O2, J2",1.85 log2
same,Relative expression of PR-14,"−H2O2, J2",3.45 log2
same,Relative expression of PR-15,"−H2O2, J2",−0.19 log2
same,Relative expression of ANS,"−H2O2, J3",1.58 log2
same,Relative expression of PAL,"−H2O2, J3",1.66 log2
same,Relative expression of PR-1,"−H2O2, J3",2.35 log2
same,Relative expression of PR-2,"−H2O2, J3",3.69 log2
same,Relative expression of PR-4,"−H2O2, J3",2.63 log2
same,Relative expression of PR-5,"−H2O2, J3",1.49 log2
same,Relative expression of PR-8,"−H2O2, J3",1.00 log2
same,Relative expression of PR-14,"−H2O2, J3",5.09 log2
same,Relative expression of PR-15,"−H2O2, J3",1.21 log2
same,Relative expression ACCO (log base 2),[5],1.92
same,Relative expression APOX (log base 2),[5],−3.00
same,Relative expression CAD (log base 2),[5],1.52
same,Relative expression CHS (log base 2),[5],2.97
same,Relative expression CSL (log base 2),[5],2.29
same,Relative expression CalS (log base 2),[5],0.05
same,Relative expression DFR (log base 2),[5],2.92
same,Relative expression EDS1 (log base 2),[5],1.91
same,Relative expression EIN3 (log base 2),[5],3.82
same,Relative expression FPPS (log base 2),[5],0.00
same,Relative expression Far (log base 2),[5],2.34
same,Relative expression GST (log base 2),[5],1.00
same,Relative expression HMGR (log base 2),[5],1.49
same,Relative expression JAR (log base 2),[5],1.25
same,Relative expression LOX2 (log base 2),[5],1.60
same,Relative expression POX (log base 2),[5],0.66
same,Relative expression PPO (log base 2),[5],1.28
same,Relative expression Pect (log base 2),[5],0.98
same,Relative expression WRKY (log base 2),[5],1.25
same,Relative expression ACCO (log base 2),[6],1.96
same,Relative expression APOX (log base 2),[6],0.95
same,Relative expression CAD (log base 2),[6],0.01
same,Relative expression CHS (log base 2),[6],1.22
same,Relative expression CSL (log base 2),[6],1.81
same,Relative expression CalS (log base 2),[6],1.14
same,Relative expression DFR (log base 2),[6],1.55
same,Relative expression EDS1 (log base 2),[6],1.22
same,Relative expression EIN3 (log base 2),[6],1.22
same,Relative expression FPPS (log base 2),[6],0.13
same,Relative expression Far (log base 2),[6],1.51
same,Relative expression GST (log base 2),[6],−0.15
same,Relative expression HMGR (log base 2),[6],1.16
same,Relative expression JAR (log base 2),[6],0.63
same,Relative expression LOX2 (log base 2),[6],1.45
same,Relative expression POX (log base 2),[6],3.86
same,Relative expression PPO (log base 2),[6],0.78
same,Relative expression Pect (log base 2),[6],3.87
same,Relative expression WRKY (log base 2),[6],0.85

# Reference: patent US9290788B2, “Device for determining or studying the state of stimulation of the natural defences of plants or portions of plants” (Institut National De La Recherche Agronomique, priority 2010, dated 2016)
